Article PMC6934184, “Selective DNA-PKcs inhibition extends the therapeutic index of localized radiotherapy and chemotherapy” (The Journal of Clinical Investigation, 2019)

Molecular target: T1, EEF2K (Homo sapiens, UniProt O00418)
T1 construct: purchased Thermo Fisher Scientific (Life Technologies) SelectScreen
Assay: SelectScreen Z'LYTE
Assay type: biochemical
Summary of the method: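 Compound tested in SelectScreen activity assays, Z'LYTE for CSF1R, CDK1/cyclin B and MAP2K6 and Adapta for CAMK1. ATP for CAMK1 was listed as 10, and Km app was used for CSF1R. Results are expressed in percent.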

CN(C(=O)CN1CCOCC1)c1ccc2sc3c(-c4cccc5c(=O)cc(N6CC7CCC(C6)O7)oc45)cccc3c2c1 [NU5455] gave an inhibition at 1 µM of -2.4%.
